Assay results as given in patent publication US7855199B2, “Heterocyclic compound and anti-malignant-tumor agent containing the same as active ingredient” (Zenyaku Kogyo Kabushiki Kaisha, priority 2004, dated 2010).

What was measured:
[1] = Test 1 (Pharmacokinetics Study), oral administration to mice, serum drug concentration by HPLC; format: in vivo; details: male, BDF1, mouse, oral 200 mg/kg, mice fasting for 16 hours, 1-24 hours after administration, read-out: AUC1h-24h
Description: Pharmacokinetics study was conducted, using six-week-old BDF1 male mice. Test compound was dissolved in dichloromethane together with hydroxypropyl cellulose (low-molecular weight)(HPC(L)) 2.5 times as much as the drug weight, dried under reduced pressure and was suspended in distilled water so as to have the drug concentration of 20 mg/mL. The test compound was forcedly orally administered to mice fasting for 16 hours with dose of 200 mg/kg. One, two, four, eight and 24 hours after the administration, blood was collected from orbit of two mice to obtain serum 100 μL of the obtained serum was added with internal standard solution and 1 mL of distilled water and then test compound and internal standard substance were extracted from the resulting mixture by diethyl ether. The organic layers were evaporated to dryness under reduced pressure and residues were dissolved in eluent to obtain HPLC measurement sample. The analysis was performed by HPLC with reversed-phase column and the eluent used was acetonitrile-phosphate buffer (pH 2.5). The drug concentration in the test serum was calculated by the calibration curve (Y=aX+b) obtained from standard substance. Area under the curve (AUC1h-24h) was calculated from the drug concentration in the serum, using WinNonlin (produced by the firm Pharsight, ver. 4.01).

Human colon cancer WiDr [2] = assay: Test 2 (In Vivo Antitumor Test), subcutaneous WiDr tumor in nude mice; design: species or system mutant BALB/c nude mice; key to evaluation: Cases where T/C (%) of the last day was less than 50% and U-assay of Mann-Whitney revealed significant difference with one-sided risk rate of 1% were evaluated to be effective (+); ineffective (−); details: oral 100 mg/kg once a day, six times a week, for two weeks; for evaluation: T/C of the last day and Mann-Whitney U-assay; for T/C (%): relative tumor growth rate, last day
Description: Human colon cancer WiDr was grown as subcutaneous tumor in mutant BALB/c nude mice. 2-mm-cube tumor fragments were transplanted subcutaneously into left flank of the nude mice. When the tumor reached logarithmic growth phase, mice were divided randomly into test groups consisting five mice per group. The samples prepared by dissolving test compound in dichloromethane with a ratio of the test compound to HPC(L) being 1:2.5, dried under reduced pressure and suspended in distilled water. The samples were then orally administered at a rate of test compound 100 mg/kg, once a day and six times a week in total, for two weeks. The length and width of the tumor mass were measured on a daily basis to calculate tumor volume. The tumor volume at each measured day was divided by that at the start day of the sample administration to calculate relative tumor growth rate; and the relative tumor growth rate of the treated groups (T) and that of the control group (C) were used to calculate T/C(%).

Human colon cancer WiDr [3] = assay: in vitro antitumor test (50% growth inhibition concentration); format: cell-based
Description: This was also supported by the results of Table 3 below showing test results of in vitro antitumor test (comparative tests in 50% growth inhibition concentrations (GI50 μM) to Human colon cancer WiDr).

| SMILES | AUC(0-t) [1] [ng·h/mL] | melting point [°C] | evaluation (Human colon cancer WiDr [2]) | T/C (%) (Human colon cancer WiDr [2]) | GI50 (Human colon cancer WiDr [3]) [nM] |
| --- | --- | --- | --- | --- | --- |
| C[C@@H]1OCCN(c2cc(N3CCOCC3)nc(-n3c(C(F)F)nc4c(O)cccc43)n2)[C@@H]1C (relative stereo) [compound C, 2-(2-difluoromethyl-4-hydroxybenzimidazol-1-yl)-4-(cis-2,3-dimethylmorpholino)-6-morpholinopyrimidine, reference compound] | 17000 |  |  |  |  |
| COc1cccc2c1nc(C(F)F)n2-c1nc(N2CCOCC2)cc(N2CCOCC2)n1 [compound 5, 2-(2-difluoromethyl-4-methoxybenzimidazol-1-yl)-4,6-dimorpholinopyrimidine] |  | 203 to 205 |  |  |  |
| COc1cccc2c1nc(C(F)F)n2-c1nc(N2CCOCC2)cc(N2CCO[C@@H](C)[C@H]2C)n1 (relative stereo) [compound 3, 2-(2-difluoromethyl-4-methoxybenzimidazol-1-yl)-4-(cis-2,3-dimethylmorpholino)-6-morpholinopyrimidine] | 87000 | 176 to 178 |  |  |  |
| C[C@H]1CN(c2cc(N3CCOCC3)nc(-n3c(C(F)F)nc4c(O)cccc43)n2)C[C@H](C)O1 (relative stereo) [compound D, 2-(2-difluoromethyl-4-hydroxybenzimidazol-1-yl)-4-(trans-2,6-dimethylmorpholino)-6-morpholinopyrimidine, reference compound] | 68000 |  |  |  |  |
| C[C@@H]1CN(c2cc(N3CCOCC3)nc(-n3c(C(F)F)nc4c(O)cccc43)n2)C[C@H](C)O1 [compound A, 2-(2-difluoromethyl-4-hydroxybenzimidazol-1-yl)-4-(cis-2,6-dimethylmorpholino)-6-morpholinopyrimidine] | 17000 |  | − | 78.3 | 150 |
| CCOc1cccc2c1nc(C(F)F)n2-c1nc(N2CCOCC2)cc(N2CCOCC2)n1 [compound 8, 2-(2-difluoromethyl-4-ethoxybenzimidazol-1-yl)-4,6-dimorpholinopyrimidine] |  | 188 to 190 |  |  |  |
| COc1cccc2c1nc(C(F)F)n2-c1nc(N2CCOCC2)cc(N2C[C@@H](C)O[C@@H](C)C2)n1 [compound 1, 2-(2-difluoromethyl-4-methoxybenzimidazol-1-yl)-4-(cis-2,6-dimethylmorpholino)-6-morpholinopyrimidine] | 332000 |  | + (Cases where T/C (%) of the last day was less than 50% and U-assay of Mann-Whitney revealed significant difference with one-sided risk rate of 1% were evaluated to be effective (+)) | 35.7 | 450 |
| COc1cccc2c1nc(C(F)F)n2-c1nc(N2CCOCC2)cc(N2CCOC(C)(C)C2)n1 [compound 2, 2-(2-difluoromethyl-4-methoxybenzimidazol-1-yl)-4-(2,2-dimethylmorpholino)-6-morpholinopyrimidine] | 146000 | 166 to 168 | + (Cases where T/C (%) of the last day was less than 50% and U-assay of Mann-Whitney revealed significant difference with one-sided risk rate of 1% were evaluated to be effective (+)) | 28.8 | 140 |
| CC1(C)CN(c2cc(N3CCOCC3)nc(-n3c(C(F)F)nc4c(O)cccc43)n2)CCO1 [compound B, 2-(2-difluoromethyl-4-hydroxybenzimidazol-1-yl)-4-(2,2-dimethylmorpholino)-6-morpholinopyrimidine, reference compound] | 5000 |  | − | 88.4 | 90 |
| CCOc1cccc2c1nc(C(F)F)n2-c1nc(N2CCOCC2)cc(N2CCOC(C)(C)C2)n1 [compound 9, 2-(2-difluoromethyl-4-ethoxybenzimidazol-1-yl)-4-(2,2-dimethylmorpholino)-6-morpholinopyrimidine] | 88000 | 114 to 116 |  |  |  |
| COc1cccc2c1nc(C(F)F)n2-c1nc(N2CCOCC2)nc(N2C[C@@H](C)O[C@@H](C)C2)n1 [compound 6, 2-(2-difluoromethyl-4-methoxybenzimidazol-1-yl)-4-(cis-2,6-dimethylmorpholino)-6-morpholino-1,3,5-triazine] |  | 235 to 237 |  |  |  |
| COc1cccc2c1nc(C(F)F)n2-c1nc(N2CCOCC2)nc(N2CC(C)(C)OCC2(C)C)n1 [compound 7, 2-(2-difluoromethyl-4-methoxybenzimidazol-1-yl)-4-(2,2,5,5-tetramethylmorpholino)-6-morpholino-1,3,5-triazine] |  | 209 to 211 |  |  |  |
| COc1cccc2c1nc(C(F)F)n2-c1nc(N2CCOCC2)cc(N2C[C@H](C)O[C@@H](C)C2)n1 (relative stereo) [compound 4, 2-(2-difluoromethyl-4-methoxybenzimidazol-1-yl)-4-(trans-2,6-dimethylmorpholino)-6-morpholinopyrimidine] | 138000 |  |  |  |  |
